Source: PubChem BioAssay (NCI)
“And” between values parts separate entries of the source, which are not always exact repeats. Identical values can stand only once.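 How tested: cells in 96-well plates exposed to compound for 48 hours at five concentrations. GI50 marks 50% less growth. At the TGI there is no net growth.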 Where a SMILES comes first, the peptide text is derived from it. [ ]: non-standard residue; d: D form. The star is where a group is joined. NMeF = CN[CH](Cc1ccccc1)C(=O)O; NMeV = CN[CH](C(=O)O)C(C)C; Boc = CC(C)(C)OC(=O)*

Key:
Assay in all cases: inhibition of tumour cell growth, NCI panel, 48 h
DMS 114 small cell lung = system: DMS 114 small cell lung
DU-145 prostate = system: DU-145 prostate
HOP-18 NSCLC = system: HOP-18 NSCLC
KM20L2 colon = system: KM20L2 colon
MCF7 breast = system: MCF7 breast
MDA-MB-231 breast = system: MDA-MB-231 breast
MDA-N = system: MDA-N
SNB-78 CNS = system: SNB-78 CNS
RXF-631 renal = system: RXF-631 renal

Structure (SMILES)	TGI (DMS 114 small cell lung)	TGI (DU-145 prostate) [µM]	TGI (KM20L2 colon) [µM]	TGI (MCF7 breast) [µM]	TGI (MDA-MB-231 breast) [µM]	TGI (SNB-78 CNS) [µM]	GI50 (DU-145 prostate) [µM]	GI50 (MDA-MB-231 breast) [µM]	GI50 (MCF7 breast) [µM]	other results
O=C(O)C1OC(n2cc(F)c(=O)[nH]c2=O)CC1O (configuration not stated)	> 100 µM	> 100	> 100	> 100	> 100	> 100	–	–	–	TGI (HOP-18 NSCLC): > 100 µM; TGI (MDA-N): > 100 µM
O=C1CCN2C(=O)CCN12	> 100 µM	–	–	–	–	> 100	–	–	–	–
COc1cc2c(cc1OC)C(CC(=O)NN=C(C)C)NCC2 (configuration not stated)	> 100 µM	–	> 100	–	–	> 100	–	–	–	TGI (HOP-18 NSCLC): > 100 µM
CCOC(=O)c1c(C)n(Cc2ccc(Cl)cc2Cl)c2c1c(CN(C)C)c(O)c1[nH]cnc12	–	30.9	–	–	31.9	–	17.2	16.3	–	–
O=C(Cc1ccccc1)NN1C(=O)C(Cl)C1c1cc(Br)ccc1O (configuration not stated)	8.77 µM	–	> 100	–	–	91.8	–	–	–	TGI (HOP-18 NSCLC): > 100 µM
NCCCCN(CCCN)/[N+]([O-])=N\O	> 100 µM	–	> 100	–	–	> 100	–	–	–	TGI (HOP-18 NSCLC): > 100 µM
C1=CC2SSSC2C1 (configuration not stated)	> 100 µM	–	> 100	–	–	–	–	–	–	TGI (HOP-18 NSCLC): > 100 µM
CN1CCN(CCCOc2ccc3nc(Nc4ccc(Cl)c(C(F)(F)F)c4)ccc3c2)CC1	–	24.3	–	22	23.1	–	11.9	7.59	4.94	–
COC1=CC(=O)c2nc(-c3cccc(C)n3)[nH]c2C1=O	–	73.3	–	35.7	66.2	–	25.6	27.1	16.6	–
COc1cc(C(C)O)c[n+](CCc2c[nH]c3ccccc23)c1 (configuration not stated)	> 100 µM	–	> 100	–	–	–	–	–	–	TGI (RXF-631 renal): > 100 µM
O=C1OC(c2ccccc2)=N/C1=C\c1cccc2ccccc12	> 100 µM	–	–	–	–	> 100	–	–	–	TGI (HOP-18 NSCLC): > 100 µM
COC(=O)[C@H](C)NC(=O)NC(=O)NC(=O)CI	–	29.2	–	29.8	37.9	–	15.4	18.8	10.2	–
CC(C)C(NC(=O)OC(C)(C)C)C(=O)N(C)C(Cc1ccccc1)C(=O)N(C)C(C(=O)O)C(C)C (stereo not drawn) (Boc-Val-[NMeF]-[NMeV]-OH; configuration not given here)	> 100 µM	–	> 100	–	–	–	–	–	–	–
COc1ccc(-c2n[nH]nc2-c2cc(OC)c(OC)c(OC)c2)cc1	–	–	–	> 80.7	–	–	–	–	< 0.01	–
Cc1cccc(NC(=O)/C(=N\NC(C)(C)C)C2NC(=S)NC2=O)c1C (configuration not stated)	–	–	> 100	–	–	> 100	–	–	–	TGI (RXF-631 renal): > 100 µM
COc1ccc(/C=C/c2ccnc3ccccc23)c(OC)c1	–	> 10	–	> 10	> 10	–	–	–	–	TGI (MDA-N): > 10 µM
C=C1C(=O)O[C@H]2[C@H]1CC/C(COC(=O)C(=O)c1cn(Cc3ccccc3)c3ccccc13)=C\CC[C@@]1(C)O[C@@H]21	–	11.3	–	3.06	5.01	–	2.96	2.17	1.19	–
C[C@@]12CC=C3c4nc(Nc5cccc(O)c5)sc4CC[C@]3(C)[C@H]1CC[C@]1(C)C(=O)CC[C@@H]21	–	–	–	4.43	15	–	–	3	1.85	–

Structure (SMILES)	TGI (DMS 114 small cell lung)	TGI (DU-145 prostate) [µM]	TGI (KM20L2 colon) [µM]	TGI (MCF7 breast) [µM]	TGI (MDA-MB-231 breast) [µM]	TGI (SNB-78 CNS) [µM]	GI50 (DU-145 prostate) [µM]	GI50 (MDA-MB-231 breast) [µM]	GI50 (MCF7 breast) [µM]	other results
COc1cc(/C=C/c2cc(/C=C/c3ccc(O)c(OC)c3)n(C(=O)Nc3ccc(F)c(Cl)c3)n2)ccc1O	–	1.55	–	1.51	3.85	–	0.419	0.495	0.185	–
COC(=O)C1=CNC=C(C(=O)OC)C1C1=CC(=O)C(C)=CC1=O	–	30.3	–	47.5	19.1	–	16	2.78	16.7	–
CCCCC(O)(c1ccc(Cl)cc1)C(CN1CCOCC1)c1ccc(Cl)cc1 (configuration not stated)	–	29.8	–	24.5	27.7	–	15.7	12.7	10.6	–
NP(=O)(Oc1c2occc2cc2ccc(=O)oc12)N(CCCl)CCCl (configuration not stated)	–	> 100	–	> 100	> 100	–	–	–	–	TGI (MDA-N): > 100 µM
C[N+](C)(C)CC1CCCCCCCCCCC1=O (configuration not stated)	–	> 100	–	> 100	> 100	–	–	–	–	TGI (MDA-N): > 100 µM
Cc1cc(S(=O)(=O)Nc2nnc(-c3ccccc3)c(-c3ccccc3)n2)c(SCC(N)=O)cc1Cl	–	> 100	–	> 100	> 100	–	55.7	36.3	36.4	–
CC(=O)CSCc1ccccn1	–	> 100	–	–	> 100	–	–	–	–	TGI (MDA-N): > 100 µM
Cc1ccn2c(c1)nc1nc3ccccc3nc12	> 100 µM	–	> 100	–	–	> 100	–	–	–	–
CC1(C)C(=O)N(CCCCCCN2C(=O)C(C)(C)c3ccccc32)c2ccccc21	43.4 µM	–	> 100	–	–	> 100	–	–	–	TGI (HOP-18 NSCLC): > 100 µM
COc1cc2ncnc(Nc3ccc(C)c(O)c3)c2cc1OC	–	> 25	–	> 25	> 25	–	7.91	17.1	> 25	–
COc1cccc2c1C(=O)c1c(O)c3c(c(O)c1C2=O)C[C@@](O)(C(C)=O)C[C@@H]3OC1OC(C)C(O)C(N)C1Br (some centres not stated)	0.428 µM and 0.212 µM	2.67	1.17	–	1.72	3.09	–	–	–	GI50 (DMS 114 small cell lung): 0.0233 µM; TGI (HOP-18 NSCLC): 0.345 µM; TGI (MDA-N): 0.63 µM
NS(=O)(=O)c1ccc(N=Nc2c(O)[nH]c3ccc(-c4cnco4)cc23)cc1	–	> 25	–	> 25	> 25	–	24.4	> 25	11.8	–
O=C(N/N=C/c1ccccc1)c1c(-c2cccnc2)cnc2ccccc12	–	> 100	–	> 100	–	–	–	–	–	TGI (MDA-N): > 100 µM
COc1ccccc1CCc1cc(OC)c(OC)c(OC)c1	> 100 µM	–	> 100	–	–	> 100	–	–	–	TGI (HOP-18 NSCLC): > 100 µM
CCOC(=O)CC1(C(=O)OCC)c2[nH]c3ccccc3c2CCN1Cc1ccccc1 (configuration not stated)	38.6 µM	–	32.5	–	–	81.2	–	–	–	TGI (HOP-18 NSCLC): 54.4 µM
C=C1C(=O)O[C@@H]2/C=C(\C)CC/C=C(/COC(C)=O)C[C@@H](OC(C)=O)[C@@H]12	–	19.2	–	17	28.5	–	–	–	–	TGI (MDA-N): 20.5 µM
Clc1nc(Cl)c(Cl)c(-c2ccccc2)n1	–	–	–	48.7	–	–	–	–	–	–
